In ChEMBL document CHEMBL3507680, “University of Dundee, Gates Library screen for HepG2 cell viability”:

Test: Human HepG2 cell viability assay in 384 well format
Assay type: toxicity, cell-based
Design: dose 125 nL, time 70.5 hour; concentration not given beside the values
Settings: HepG2 cells, read-out: Inhibition

| Structure (SMILES) | cytotoxicity at 70.5 h [%] |
| --- | --- |
| COc1ccc(C(=O)C2CCCN(Cc3ccncc3)C2)cc1OC (stereo unspecified) | -3.65 |
| Cc1ncn(CCNC(=O)Nc2ccc(F)c(Cl)c2)c(=O)c1C | -3.86 |
| CC(C)N1CCc2ncn(C)c2C1C(=O)NCCN1CCCC1 (stereo unspecified) | -8.41 |
| N#Cc1ccc(C(=O)O)nc1/C=C/c1cccc(Cl)c1 | 7.88 |
| NC(=O)C1CCN(c2nc3nccc(-c4ccccc4)c3c(=O)[nH]2)CC1 | -13.2 |
| CNC(=O)N1C[C@H]2C[C@H](C(=O)Nc3cccnc3)[C@@H](C1)O2 | -2.82 |
| N[C@@H](Cc1ccccc1)c1nnc(S(=O)(=O)Cc2ccc(Cl)cc2)o1 | 12.7 |
| CS(=O)(=O)C1(C(=O)NC2CCc3nccn3C2)CCCC1 (stereo unspecified) | -4.12 |
| NC(=O)CC1CCN(C(=O)NCc2ccccc2-n2cccn2)CC1 | -1.19 |
| CCc1nnc(N2CCN(c3ccccc3)C(=O)C2)o1 | -7.77 |
| Cc1cc(-c2nccs2)nc(C2CCN(Cc3ccc(F)cc3)CC2)n1 | -2 |
| Cc1ccc(CN(C)C(=O)CN2CC(n3cccn3)C2)o1 | 23.5 |
| COCC1CN(C(=O)c2ccnnc2)Cc2ncnn2C1 (stereo unspecified) | -3.33 |
| CN1CCN(c2nc(O)c3c(-c4ccccn4)ccnc3n2)CC1 | -3.01 |
| Cc1noc(OCCOc2ccc(C#N)cc2)n1 | 5.31 |
| CCn1cnnc1CNC(=O)NC(C)c1ccccn1 (stereo unspecified) | 9.12 |
| Cc1ccc2c(c1)CN(C(=O)c1ccncc1)C(CN(C)C)CO2 (stereo unspecified) | -0.528 |
| CCc1cnc(N)nc1NCCc1ccc(OC)cc1OC | -0.653 |
| c1coc(CN2C[C@H](OCC3CCOCC3)[C@H]3COC[C@H]32)c1 | -15.3 |
| Cc1ccccc1CN(CCN(C)C)Cc1ccccc1C(=O)O | -7.13 |
| COCCN1CCc2cc(C(=O)N(C)C)c(NC(C)C)nc2CC1 | -8.98 |

| Structure (SMILES) | cytotoxicity at 70.5 h [%] |
| --- | --- |
| CCOc1nnc(CN2CCOC(CNc3cccnn3)C2)s1 (stereo unspecified) | 15 |
| O=C(NCc1ccc(Br)cc1)C1(O)CCSCC1 | -1.14 |
| COCCNC(=O)[C@H]1CO[C@H]2CCN(Cc3cccs3)C[C@H]2C1 | -1.82 |
| CC(C)n1nnc(CC(=O)NCC2(c3ccccc3F)CCCC2)n1 | -10.2 |
| c1cnnc(N2CCCC(NCc3ccncc3)C2)c1 (stereo unspecified) | -4.07 |
| O=C(NCC1CCOC1)Nc1ccc(OCC(F)(F)F)nc1 (stereo unspecified) | -10.7 |
| CC(=O)N[C@@H]1CN(C(=O)Cc2coc3cc(C)ccc23)C[C@H]1O | -2.72 |
| CCOC(=O)C1CCN(C(=O)c2cnn(-c3ccccc3F)c2N)CC1 | -4.94 |
| O=C(CN1CCc2[nH]c3ccccc3c2C1)NCc1ccco1 | -10.8 |
| CNC(=O)c1cc(NC(=O)Nc2cnn(CC(C)C)c2)ccc1F | -4.7 |
| c1ccc2c(c1)CCC21CN(CCc2ccncc2)CCO1 (stereo unspecified) | -4.57 |
| CNC(=O)[C@@H]1C[C@@H](NC(=O)c2ccc(OC)o2)CN1Cc1sccc1C | 1.26 |
| Cc1cc(C)n(CC(C)CNC(=O)[C@@H](C)NC(=O)OC(C)(C)C)n1 (stereo partly specified) | -27.5 |
| CC(C)c1nc(CC(=O)N2CCCC(n3cncn3)C2)cs1 (stereo unspecified) | 2.88 |
| CCc1nc(CNC(=O)C2CCC(=O)N(Cc3ccccc3F)C2)no1 (stereo unspecified) | -8.67 |
| O=C1COC2(COCCN(c3ccccn3)C2)CN1c1cccc(F)c1 (stereo unspecified) | -9.76 |
| COCC(=O)N1CCN(C(=O)C2(c3ccc(C)c(OC)c3)CC2)CC1 | -2.36 |
| Cc1cc(C[C@@H]2COC[C@@H]2NC(=O)CNC(=O)N(C)C)on1 | 9.05 |
| Brc1ccc(C2(NCc3noc(C4CC4)n3)CCC2)cc1 | 2.53 |
| CCc1ccc(C(=O)N2CCC(N(C)C(=O)OC(C)(C)C)C2)o1 (stereo unspecified) | 0.0812 |
| CCOc1ncccc1CNC(=O)N1CCCC1c1ccsc1 (stereo unspecified) | -0.934 |

| Structure (SMILES) | cytotoxicity at 70.5 h [%] |
| --- | --- |
| Cc1cc(C(=O)N2CCC(c3nccn3Cc3ccncc3)CC2)no1 | 1.65 |
| CC1CCCCN1CCNC(=O)c1ccn(-c2cccc(F)c2)n1 (stereo unspecified) | -0.176 |
| COc1cc(CNC(=O)Nc2nnc(C(C)C)s2)ccn1 | 1.23 |
| Cn1ccc(C(=O)Nc2nccn2Cc2ccccc2Cl)cc1=O | -7.59 |
| CC(C(=O)Nc1ccnn1C(C)C)N1CCc2nn(C)c(=O)cc2C1 (stereo unspecified) | 4.22 |
| CC(C)N1CC2(CCCN(c3ncc(Cl)cc3F)C2)CCC1=O (stereo unspecified) | -4.82 |
| O=C(CCN1CCOCC1)N1CCC(Cc2ccc(CO)cc2)C1 (stereo unspecified) | -2.12 |
| CCN(CC)CCCC(C)NC(=O)c1cccnc1-n1cccn1 (stereo unspecified) | 3.18 |
| CCOC(=O)C1(O)CCN(C(=O)Nc2cccc(CC)c2)CC1 | -0.303 |
| Cc1nnc(CCNC(=O)c2coc(CN3CCOCC3)c2)s1 | 1.37 |
| CC(=O)Nc1nc(C(=O)NCc2ccc(N3CCOCC3)nc2)cs1 | 14.9 |
| c1ccc(-c2nnc3n2CCN(Cc2ccc4c(c2)OCCO4)C3)cc1 | 26.9 |
| CN(C)C(=O)CSc1nnc(CCNC(=O)OC(C)(C)C)o1 | 22.7 |
| CC(C)(C)c1nc(CN(Cc2cccs2)C2CCS(=O)(=O)C2)cs1 (stereo unspecified) | -2.81 |
| COc1ccc(NC(=O)Cn2ccc3c(=O)n(C)ccc32)cc1OC | -3.38 |
| CC(=O)N1CC(=O)N(c2cccnc2)CC12CCN(Cc1nccs1)C2 (stereo unspecified) | -0.821 |
| CCOc1ncccc1NC(=O)N1CCC(n2cncn2)CC1 | -8.07 |
| Cc1ccc(NC2CCN(C(=O)c3c(C)noc3C)CC2)nn1 | -2.81 |
| CNc1cc(C)nc(C2COCCN2CCc2ccc(F)cc2)n1 (stereo unspecified) | -4.38 |
| O=c1c2ccccc2nc2n1C(CSc1cccc(C(F)(F)F)c1)CN2 (stereo unspecified) | -2.38 |
| Fc1ccc(-n2cccn2)c(CN2CCCCC2CCn2ccnc2)c1 (stereo unspecified) | 1.83 |

| Structure (SMILES) | cytotoxicity at 70.5 h [%] |
| --- | --- |
| Cc1cccc(C(=O)N2CCC3(CC(C(=O)N(C)C(C)C)=NO3)C2)c1 (stereo unspecified) | -3.14 |
| CN(C(=O)c1cccnc1)C1CCCN(CCc2ccccc2)C1 (stereo unspecified) | -5.02 |
| CCc1ncc2c(n1)CN(Cc1nc3c(F)cccc3[nH]1)CC2 | -5.3 |
| OC[C@H]1CC[C@]2(CC1)CN(Cc1ccccc1F)Cc1ccccc1O2 | -3.44 |
| Cc1nc(CC(=O)NCc2csc(N3CCCC3)n2)cs1 | -4.47 |
| CS(=O)(=O)CCC(=O)NC1CC(c2cccc(Cl)c2)C1 (stereo unspecified) | 14.6 |
| CCCC1(NC(=O)C(c2ccc(F)cc2)N(C)C)CC1 (stereo unspecified) | 10.6 |
| CO[C@@H]1CC[C@H]2[C@H]1OCCN2CC1CCOCC1 | -2.79 |
| c1ccc(C2CCCN(Cc3cc4n(n3)CCNC4)CC2)cc1 (stereo unspecified) | -6.51 |
| CCC(=O)N1CCN(Cc2cc(-c3ccncc3)nn2C)CC1 | 5.2 |
| CCn1nc(C)c(CCNC(=O)c2coc(CN3CCOCC3)c2)c1C | 0.862 |
| Cc1ccc(C(=O)N2CCCC(c3nncn3C)C2)c(C)c1 (stereo unspecified) | -4.5 |
| Cc1cc(C(=O)NCCc2c(C)nn(C)c2C)nc(N2CCCCC2)n1 | 20.6 |
| CCc1nnc(CN2CCc3cnc(C)nc3C2)o1 | -3.58 |
| COc1ncccc1C(=O)N1CC(c2nc(-c3ccco3)no2)C1 | 15.9 |
| CN(C)S(=O)(=O)N1CCC(Oc2ccccn2)CC1 | 3.95 |
| c1ccc(CNC[C@H]2Cn3ccnc3CO2)cc1 | 4.33 |
| O=C(CN1CCCC1Cn1cncn1)Nc1cccnc1 (stereo unspecified) | -7.61 |
